Test results reported in patent publication US11612606B2, “8-aminoisoquinoline compounds and uses thereof” (priority 2018, dated 2023).
Structures can show the parent of a compound that is named as a salt. Where two headings read alike, the source gives them in different places.

Tests used:
[1] = system: primary human pan T cells; assay: Human T-cell IL2 induction assay; type: cell-based
Protocol: Assay Principle: Anti-CD3 and anti-CD28 activates TCR signaling in primary human pan T cells leading to IL-2 promoter induction. Secreted IL-2 in cell culture supernatant is detected by electrochemiluminescence using a capture antibody against IL-2 and an anti-IL-2 antibody labeled with SULFO-tag. Also see www.mesoscale.com for additional electrochemiluminescence technology information.
Assay Procedure: Incubate primary human pan T cells with varying concentrations of test compounds for 30 minutes in a humidified incubator at 37° C. and 5% CO2. Transfer cells to a plate pre-coated with a fixed concentration of anti-human CD3 (determined separately for each donor lot) and add soluble anti-human CD28 (final concentration=1 μg/ml). Stimulate cells in a humidified incubator at 37° C. and 5% CO2 for 4 hours. Transfer 25 μl of supernatant to a MSD single spot plate pre-coated with an anti-human IL-2 antibody. Incubate MSD plate overnight at 4° C. with gentle shaking. Wash MSD plate 4× with wash buffer. Add SULFO-tagged detection antibody at a 1:50 dilution and incubate at room temperature shaking for 2 hours. Wash MSD plate 4× with wash buffer and add 150 μl 2×MSD read buffer. Read on an MSD instrument. Normalize data to stimulated/untreated controls to calculate % activity at each concentration of compound.
Instrumentation: • Biomek FX for liquid handling (Beckman Coulter) • MSD SECTOR S 600 (Meso Scale Discovery)
Exemplary compounds of Formula (I) were tested in the human T-cell IL-2 induction assays.

[2] = molecular target: HPK full length, T165E S171E (Homo sapiens (Human), UniProt Q92918, S171E/T165E); assay: HPK1-FL HTRF enzymatic assay ("HTRF"); type: biochemical; settings: ATP 1 mM
Sequence of HPK full length, T165E S171E (Q92918 whole entry T165E/S171E, looked up): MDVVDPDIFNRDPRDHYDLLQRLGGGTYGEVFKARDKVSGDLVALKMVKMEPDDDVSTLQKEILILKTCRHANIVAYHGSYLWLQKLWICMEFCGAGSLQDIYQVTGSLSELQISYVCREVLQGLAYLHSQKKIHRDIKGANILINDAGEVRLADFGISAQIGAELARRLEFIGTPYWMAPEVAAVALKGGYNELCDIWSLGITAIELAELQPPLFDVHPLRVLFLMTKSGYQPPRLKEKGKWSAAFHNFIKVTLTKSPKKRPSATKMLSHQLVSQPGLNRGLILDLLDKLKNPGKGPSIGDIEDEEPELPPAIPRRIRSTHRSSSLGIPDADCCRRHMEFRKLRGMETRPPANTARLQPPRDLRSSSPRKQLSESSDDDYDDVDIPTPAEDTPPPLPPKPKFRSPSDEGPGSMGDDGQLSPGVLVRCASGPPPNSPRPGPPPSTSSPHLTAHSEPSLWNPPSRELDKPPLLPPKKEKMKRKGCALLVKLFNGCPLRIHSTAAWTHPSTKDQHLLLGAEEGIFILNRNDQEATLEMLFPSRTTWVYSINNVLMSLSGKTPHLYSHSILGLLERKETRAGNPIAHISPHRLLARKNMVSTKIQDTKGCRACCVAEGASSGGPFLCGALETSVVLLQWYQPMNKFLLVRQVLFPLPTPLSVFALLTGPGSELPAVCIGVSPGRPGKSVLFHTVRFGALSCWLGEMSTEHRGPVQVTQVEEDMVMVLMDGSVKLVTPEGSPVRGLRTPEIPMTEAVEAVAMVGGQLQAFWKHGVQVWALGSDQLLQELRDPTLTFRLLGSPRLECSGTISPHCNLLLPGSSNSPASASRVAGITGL
Outline: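 Full-length HPK1 (T165E/S171E) was preincubated 30 min with compound, then reacted 60 min with biotin-SLP-76 and 1 mM ATP. Phospho-SLP-76 was detected by HTRF (Eu-anti-pSLP76 antibody, SA-XL665) after a further 60 min.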

Structure (SMILES)	Ki ([2]; read-out: HPK1 Ki) [nM]	other results
Cc1c(-c2cc3cc(NC(=O)O[C@H]4C[C@@](C)(O)[C@H]4C)ncc3c(N)c2F)cnc2c1NCCO2 [Compound 526b, (1S,2S,3R)-3-Hydroxy-2,3-dimethylcyclobutyl (8-amino-7-fluoro-6-(8-methyl-2,3-dihydro-1H-pyrido[2,3-b][1,4]oxazin-7-yl)isoquinolin-3-yl)carbamate]	0.016	% IL-2 increase relative to untreated cells ([1]; assayed concentration 2.778 μM): 970%
Cc1c(-c2cc3cc(NC(=O)OC4CC(C)(O)C4)ncc3c(N)c2F)cnc2c1NCCO2 (stereo not drawn) [Compound 486, (3-Hydroxy-3-methyl-cyclobutyl) N-[8-amino-7-fluoro-6-(8-methyl-2,3-dihydro-1H-pyrido[2,3-b][1,4]oxazin-7-yl)-3-isoquinolyl]carbamate]	< 0.013	% IL-2 increase relative to untreated cells ([1]; assayed concentration 2.778 μM): 1400%
Cc1c(-c2cc3cc(NC(=O)O[C@H]4C[C@@H](CC#N)C4)ncc3c(N)c2F)cnc2c1NCCO2 [Compound 536b, (1s,3r)-3-(Cyanomethyl)cyclobutyl (8-amino-7-fluoro-6-(8-methyl-2,3-dihydro-1H-pyrido[2,3-b][1,4]oxazin-7-yl)isoquinolin-3-yl)carbamate]	–	% IL-2 increase relative to untreated cells ([1]; assayed concentration 8.333 μM): 2280%
Cc1c(-c2cc3cc(NC(=O)O[C@@H]4CCN(C5COC5)C[C@H]4F)ncc3c(N)c2F)cnc2c1NCCO2 [Compound 445b, (3R,4R)-3-Fluoro-1-(oxetan-3-yl)piperidin-4-yl(8-amino-7-fluoro-6-(8-methyl-2,3-dihydro-1H-pyrido[2,3-b][1,4]oxazin-7-yl)isoquinolin-3-yl)carbamate]	–	% IL-2 increase relative to untreated cells ([1]; assayed concentration 2.778 μM): 1436%
Cc1c(-c2cc3cc(NC(=O)O[C@H]4C[C@@](C)(C#N)C4)ncc3c(N)c2F)cnc2c1NCCO2 [Compound 537a, (1s,3s)-3-Cyano-3-methylcyclobutyl (8-amino-7-fluoro-6-(8-methyl-2,3-dihydro-1H-pyrido[2,3-b][1,4]oxazin-7-yl)isoquinolin-3-yl)carbamate]	0.015	–
CO[C@@H]1CCC[C@@H]1NC(=O)Nc1cc2cc(-c3cnc4c(c3C)NCCO4)c(F)c(N)c2cn1 (single isomer, unassigned) [Compound 729a]	1.37	–
CO[C@H]1COC[C@H]1NC(=O)Nc1cc2cc(-c3cnc4c(c3C)NCCO4)c(F)c(N)c2cn1 (single isomer, unassigned) [Compound 723b]	0.029	–
CO[C@@H]1COCC[C@H]1OC(=O)Nc1cc2cc(-c3cnc4c(c3C)NCCO4)c(F)c(N)c2cn1 (single isomer, unassigned) [Compound 583d]	0.72	–
Cc1c(-c2cc3cc(NC(=O)OC4C5COCC4CN(C4COC4)C5)ncc3c(N)c2F)cnc2c1NCCO2 [Compound 575a, (1R,5S,9s)-7-(Oxetan-3-yl)-3-oxa-7-azabicyclo[3.3.1]nonan-9-yl (8-amino-7-fluoro-6-(8-methyl-2,3-dihydro-1H-pyrido[2,3-b][1,4]oxazin-7-yl)isoquinolin-3-yl)carbamate]	< 0.013	–
Cc1c(-c2cc3cc(NC(=O)OC(C)C)ncc3c(N)c2F)cnc2c1NCCO2 [Compound 436, Isopropyl (8-amino-7-fluoro-6-(8-methyl-2,3-dihydro-1H-pyrido[2,3-b][1,4]oxazin-7-yl)isoquinolin-3-yl)carbamate]	0.014	–
Cc1c(-c2cc3cc(NC(=O)N4CCCC4)ncc3c(N)c2F)cnc2c1NCCO2 [Compound 745, N-(8-Amino-7-fluoro-6-(8-methyl-2,3-dihydro-1H-pyrido[2,3-b][1,4]oxazin-7-yl)isoquinolin-3-yl)pyrrolidine-1-carboxamide]	0.29	–
CCc1c(-c2cc3cc(NC(=O)O[C@@H]4CC(=O)N(C)C4)ncc3c(N)c2F)cnc2c1NCCO2 (single isomer, unassigned) [Compound 444a]	< 0.013	–
Cc1c(-c2cc(N)c3cnc(NC(=O)O[C@@H]4COC[C@H]4C)cc3c2)cnc2c1NCCO2 (single isomer, unassigned) [Compound 556b, hydrochloride]	< 0.013	–
Cc1c(-c2cc3cc(NC(=O)OC4CCOCC4)ncc3c(N)c2F)cnc2c1[C@@H](O)CCO2 (single isomer, unassigned) [Compound 412a]	41	–
Cc1c(-c2cc3cc(NC(=O)OC4CN(C)CCN(C)C4)ncc3c(N)c2F)cnc2c1NCCO2 [Compound 465, 1,4-Dimethyl-1,4-diazepan-6-yl (8-amino-7-fluoro-6-(8-methyl-2,3-dihydro-1H-pyrido[2,3-b][1,4]oxazin-7-yl)isoquinolin-3-yl)carbamate]	0.46	–
Cc1c(-c2cc3cc(NC(=O)OC4CCOCC4)ncc3c(N)c2F)cnc2c1NCCC2O (stereo not drawn) [Compound 413, Tetrahydro-2H-pyran-4-yl (8-amino-7-fluoro-6-(8-hydroxy-4-methyl-5,6,7,8-tetrahydro-1,5-naphthyridin-3-yl)isoquinolin-3-yl)carbamate]	0.65	–

Structure (SMILES)	Ki ([2]; read-out: HPK1 Ki) [nM]	other results
Cc1c(-c2cc3cc(NC(=O)O[C@H]4CC(=O)N(C)C4)ncc3c(N)c2F)cnc2c1NCCC2 (single isomer, unassigned) [Compound 481a]	0.184	–
Cc1c(-c2cc3cc(NC(=O)O[C@H]4C[C@H](CO)C4)ncc3c(N)c2F)cnc2c1NCCO2 [Compound 571a, (1r,3r)-3-(Hydroxymethyl)cyclobutyl (8-amino-7-fluoro-6-(8-methyl-2,3-dihydro-1H-pyrido[2,3-b][1,4]oxazin-7-yl)isoquinolin-3-yl)carbamate]	0.014	–
CO[C@H]1C[C@H](OC(=O)Nc2cc3cc(-c4cnc5c(c4C)NCCO5)c(F)c(N)c3cn2)C1 [Compound 576a, (1r, 3r)-3-Methoxycyclobutyl (8-amino-7-fluoro-6-(8-methyl-2,3-dihydro-1H-pyrido[2,3-b][1,4]oxazin-7-yl)isoquinolin-3-yl)carbamate]	< 0.013	–
Cc1c(-c2cc3cc(NC(=O)OC4C5COCC4CN(C)C5)ncc3c(N)c2F)cnc2c1NCCO2 (single isomer, unassigned) [Compound 439a]	< 0.013	–
Cc1c(-c2cc3cc(NC(=O)OC4CC5(CCN(C)CC5)C4)ncc3c(N)c2F)cnc2c1NCCC2 [Compound 423, (7-Methyl-7-azaspiro[3.5]nonan-2-yl) N-[8-amino-7-fluoro-6-(4-methyl-5,6,7,8-tetrahydro-1,5-naphthyridin-3-yl)-3-isoquinolyl]carbamate]	< 0.013	–
Cc1c(-c2cc3cc(NC(=O)O[C@@H]4CO[C@@]5(CCN(C)C5)C4)ncc3c(N)c2F)cnc2c1NCCO2 (single isomer, unassigned) [Compound 467a]	0.031	–
Cc1c(-c2cc3cc(NC(=O)OC4CN(CCF)C4)ncc3c(N)c2F)cnc2c1NCCO2 [Compound 521, 1-(2-Fluoroethyl)azetidin-3-yl (8-amino-7-fluoro-6-(8-methyl-2,3-dihydro-1H-pyrido[2,3-b][1,4]oxazin-7-yl)isoquinolin-3-yl)carbamate]	0.11	–
Cc1c(-c2cc3cc(NC(=O)O[C@@H]4CCN([C@@H]5CCOC5)C[C@@H]4F)ncc3c(N)c2F)cnc2c1NCCO2 [Compound 569b, (3S,4R)-3-fluoro-1-((R)-tetrahydrofuran-3-yl)piperidin-4-yl (8-amino-7-fluoro-6-(8-methyl-2,3-dihydro-1H-pyrido[2,3-b][1,4]oxazin-7-yl)isoquinolin-3-yl)carbamate]	0.254	–
Cc1c(-c2cc3cc(NC(=O)O[C@@H]4COC[C@H]4C#N)ncc3c(N)c2F)cnc2c1NCCO2 (single isomer, unassigned) [Compound 538a]	0.058	–
Cc1c(-c2cc3cc(NC(=O)O[C@H]4COC[C@@H]4C4CC4)ncc3c(N)c2F)cnc2c1NCCO2 (single isomer, unassigned) [Compound 516a]	0.031	–
Cc1c(-c2cc3cc(NC(=O)O[C@@H]4CC[C@H]4O)ncc3c(N)c2F)cnc2c1NCCO2 [Compound 542d, (1R,2R)-2-Hydroxycyclobutyl (8-amino-7-fluoro-6-(8-methyl-2,3-dihydro-1H-pyrido[2,3-b][1,4]oxazin-7-yl)isoquinolin-3-yl)carbamate hydrochloride]	–	Ki ([2]; HPK1 Ki): 0.014 nM
Cc1c(-c2cc3cc(NC(=O)O[C@H]4C[C@H]([C@@H](C)O)C4)ncc3c(N)c2F)cnc2c1NCCO2 (single isomer, unassigned) [Compound 573c]	0.017	–
Cc1c(-c2cc3cc(NC(=O)O[C@@H]4CC[C@@H]4O)ncc3c(N)c2F)cnc2c1NCCO2 [Compound 542b, (1R,2S)-2-Hydroxycyclobutyl (8-amino-7-fluoro-6-(8-methyl-2,3-dihydro-1H-pyrido[2,3-b][1,4]oxazin-7-yl)isoquinolin-3-yl)carbamate]	0.078	–
CC[C@@H]1COC[C@H]1OC(=O)Nc1cc2cc(-c3cnc4c(c3C)NCCO4)c(F)c(N)c2cn1 (single isomer, unassigned) [Compound 515a]	0.105	–
Cc1c(-c2cc3cc(NC(=O)O[C@H]4C[C@@H](F)C4)ncc3c(N)c2F)cnc2c1NCCO2 [Compound 541a, (1s,3s)-3-Fluorocyclobutyl (8-amino-7-fluoro-6-(8-methyl-2,3-dihydro-1H-pyrido[2,3-b][1,4]oxazin-7-yl)isoquinolin-3-yl)carbamate hydrochloride]	0.014	–
